How the values were obtained:
[1] = system: MCF-7 cells; assay: MTT cell proliferation assay, MCF-7; format: cell-based, human; conditions: Homo sapiens, MCF7; MTT, 24 hours treatment, curve fitting; read-out: IC50, proliferation of MCF-7 cells
Method: FIG. 8. Effects of HCB on the proliferation of MCF-7 cells. MCF-7 cells were seeded in 96 well plates and treated with drugs at varied concentration for 24 hours. MTT assay was performed to determine remaining viable cells in each well. Results are represented as mean±S.D. (n=7). IC50 was determined by curve fitting.
3-(4,5-Dimethylthiazol-2-yl)-2,5-diphenyltetrazolium Bromide (MTT) Cell Proliferation Assay. To cells grown in 96-well-tissue culture plate, 20 μl/well of MTT solution (5 mg/ml in PBS) was added. After 1-2 hours incubation at 37° C., the plate was centrifuged. Supernatant was discarded and 100 μl DMSO was added to dissolve water insoluble formazan, and the absorbance was read at 540 nm with a plate reader.

[2] = system: SARS-CoV-2; assay: SARS-CoV-2 antiviral assay in Vero cells; format: cell-based; conditions: Severe acute respiratory syndrome coronavirus 2, Vero
[3] = system: SARS-CoV-2; assay: microbe, parasite or virus in culture; format: cell-based
[4] = Cytotoxicity assay in 293T/ACE2 cells; conditions: human, HEK293T/17 cells expressing human ACE2
[5] = system: 293T human embryonic kidney cells over-expressing the ACE2 receptor; assay: Cytotoxicity assay in 293T/ACE2 cells; conditions: 293T/ACE2 cytotoxicity
[6] = in vitro; conditions: African green monkey, Vero E6 cells
[7] = system: Vero cells; assay: Cytotoxicity assay in Vero cells

N=C(NCCCCCC(F)(F)F)NC(=N)NCC12C3C4C5C3C1C5C42 (centres unmarked) [HCB-F3, N1-6′,6′,6′-trifluorohexyl-N5-(cuban-1′-yl)methyl-biguanide]
IC50 [1]: 13700 nM

CC(F)(F)CCCCNC(=N)NC(=N)NCC12C3C4C5C3C1C5C42 (centres unmarked) [HCB-F2, N1-5′,5′-difluorohexyl-N5-(cuban-1-yl)methyl-biguanide]
IC50 [1]: 13500 nM

N=C(NCC12C3C4C5C3C1C5C42)NC(=N)NCC12C3C4C5C3C1C5C42 (centres unmarked) [DCB, Dicubanomethyl Biguanide]
IC50 [1]: 22100 ± 1700 nM

CCC(CC)COC(=O)[C@H](C)N[P@](=O)(OC[C@H]1O[C@@](C#N)(c2ccc3c(N)ncnn23)[C@H](O)[C@@H]1O)Oc1ccccc1 [remdesivir]
IC50 ([2]; read-out: antiviral IC50): 1040 nM
IC90 ([2]; read-out: antiviral IC90): 2250 nM
IC50 ([3]; Severe acute respiratory syndrome coronavirus 2, 293T/ACE2, read-out: antiviral IC50): 20 nM
IC90 ([3]; Severe acute respiratory syndrome coronavirus 2, 293T/ACE2, read-out: antiviral IC90): 22 nM
CC50 [4]: > 100 nM
CC10 [5]: > 100 nM
CC50 at 48 h [6]: > 20000 nM
CC10 [7]: > 286 nM
